# Source: the supplement of paper PMC10307832
# Assays:
# Experiment in all cases: relative viability (nuclei count vs DMSO), 5 days (fraction); higher = more cells survive
# [1] = system: NCI-H1755
# In short: (§1)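 Medians of duplicate plates are given as relative viability. That measure is the nuclei count in treated wells divided by the count in vehicle wells. Counts were taken on 4× images of lung cancer cell lines in 1536-well plates, 5 days after pin-tool dosing the day after seeding with one drug alone or a fixed anchor-drug dose plus five library-drug doses (not always all listed) in √10 steps.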
# [2] = system: LCLC-103H
# In short: as §1
# [3] = system: NCI-H1395
# In short: as §1
# [4] = system: NCI-H1299
# In short: as §1
# [5] = system: A549
# In short: as §1
# [6] = system: NCI-H1703
# In short: as §1
# [7] = system: EKVX
# In short: as §1
# [8] = system: NCI-H1623
# In short: as §1
# [9] = system: UMC-11
# In short: as §1
# [10] = system: EBC-1
# In short: as §1
# [11] = system: HCC-15
# In short: as §1
# [12] = system: IA-LM
# In short: as §1
# [13] = system: Calu-6
# In short: as §1
smiles,measurement,setting,value
Nc1ccn([C@@H]2O[C@H](CO)[C@@H](O)[C@@H]2O)c(=O)n1 [Cytarabine] + COc1cc2c(Oc3ccc(NC(=O)C4(C(=O)Nc5ccc(F)cc5)CC4)cc3F)ccnc2cc1OCCCN1CCOCC1 [Foretinib] (partner 0.25 µM),relative viability,[1]; first compound 0.005 µM,0.962
same,relative viability,[1]; first compound 0.01581 µM,0.886
same,relative viability,[1]; first compound 0.05 µM,0.736
same,relative viability,[1]; first compound 0.1581 µM,0.387
same,relative viability,[1]; first compound 0.5 µM,0.356
same,relative viability,[2]; first compound 0.005 µM,0.849
same,relative viability,[2]; first compound 0.01581 µM,0.817
same,relative viability,[2]; first compound 0.05 µM,0.96
same,relative viability,[2]; first compound 0.1581 µM,0.604
same,relative viability,[2]; first compound 0.5 µM,0.57
same,relative viability,[3]; first compound 0.005 µM,0.917
same,relative viability,[3]; first compound 0.01581 µM,0.757
same,relative viability,[3]; first compound 0.05 µM,0.548
same,relative viability,[3]; first compound 0.1581 µM,0.492
same,relative viability,[3]; first compound 0.5 µM,0.413
same,relative viability,[4]; first compound 0.005 µM,1.15
same,relative viability,[4]; first compound 0.01581 µM,1.13
same,relative viability,[4]; first compound 0.05 µM,1.05
same,relative viability,[4]; first compound 0.1581 µM,1.12
same,relative viability,[4]; first compound 0.5 µM,1.16
same,relative viability,[5]; first compound 0.005 µM,0.622
same,relative viability,[5]; first compound 0.01581 µM,0.629
same,relative viability,[5]; first compound 0.05 µM,0.336
same,relative viability,[5]; first compound 0.1581 µM,0.071
same,relative viability,[5]; first compound 0.5 µM,0.0358
same,relative viability,[6]; first compound 0.005 µM,0.251
same,relative viability,[6]; first compound 0.01581 µM,0.273
same,relative viability,[6]; first compound 0.05 µM,0.253
same,relative viability,[6]; first compound 0.1581 µM,0.195
same,relative viability,[6]; first compound 0.5 µM,0.158
same,relative viability,[7]; first compound 0.005 µM,0.866
same,relative viability,[7]; first compound 0.01581 µM,0.594
same,relative viability,[7]; first compound 0.05 µM,0.622
same,relative viability,[7]; first compound 0.1581 µM,0.413
same,relative viability,[7]; first compound 0.5 µM,0.793
same,relative viability,[8]; first compound 0.005 µM,0.695
same,relative viability,[8]; first compound 0.01581 µM,0.545
same,relative viability,[8]; first compound 0.05 µM,0.375
same,relative viability,[8]; first compound 0.1581 µM,0.463
same,relative viability,[8]; first compound 0.5 µM,0.577
same,relative viability,[9]; first compound 0.005 µM,0.653
same,relative viability,[9]; first compound 0.01581 µM,0.63
same,relative viability,[9]; first compound 0.05 µM,0.45
same,relative viability,[9]; first compound 0.1581 µM,0.349
same,relative viability,[9]; first compound 0.5 µM,0.261
same,relative viability,[10]; first compound 0.005 µM,0.0948
same,relative viability,[10]; first compound 0.01581 µM,0.0902
same,relative viability,[10]; first compound 0.05 µM,0.0964
same,relative viability,[10]; first compound 0.1581 µM,0.0746
same,relative viability,[10]; first compound 0.5 µM,0.076
same,relative viability,[11]; first compound 0.005 µM,0.905
same,relative viability,[11]; first compound 0.01581 µM,1.05
same,relative viability,[11]; first compound 0.05 µM,0.996
same,relative viability,[11]; first compound 0.1581 µM,0.77
same,relative viability,[11]; first compound 0.5 µM,0.706
same,relative viability,[12]; first compound 0.005 µM,0.802
same,relative viability,[12]; first compound 0.01581 µM,1.05
same,relative viability,[12]; first compound 0.05 µM,0.916
same,relative viability,[12]; first compound 0.1581 µM,0.592
same,relative viability,[12]; first compound 0.5 µM,0.246
same,relative viability,[13]; first compound 0.005 µM,0.796
same,relative viability,[13]; first compound 0.01581 µM,0.702
same,relative viability,[13]; first compound 0.05 µM,0.707
same,relative viability,[13]; first compound 0.1581 µM,0.405
same,relative viability,[13]; first compound 0.5 µM,0.233
